assay: method code SF-AS, from DOI: 10.1016/0006-2952(66)90048-7; conditions: not given

| logP | Compound |
| --- | --- |
| 1.15 | O=C(NC(=O)c1c(O)cccc1O)c1c(O)cccc1O |
| 0.6 | NC(=O)c1c(O)cccc1O |
| 0.32 | O=C(O)c1ccccc1NC(=O)c1c(O)cccc1O |
| 1.92 | O=C(NC(=O)c1ccccc1O)c1ccccc1O |
| 0.86 | O=C(NC(=O)c1ccc(O)cc1O)c1ccc(O)cc1O |
| 0.74 | O=C(Nc1ccccc1C(=O)O)c1ccccc1O |
| -0.62 | CC(=O)Oc1cccc(OC(C)=O)c1C(N)=O |
| -0.15 | NC(=O)c1ccc(O)cc1O |
| 1.38 | O=C(NC(=O)c1ccccc1O)c1ccccc1 |

same assay, conditions: pH 7.0

| logD | Compound |
| --- | --- |
| 0.89 | NC(=O)c1ccccc1O |
| 1.43 | O=C(Nc1ccccc1)c1c(O)cccc1O |
